Laboratory results as given in patent EP0106571A2, “Prophylactic substance or composition” (priority 1982, dated 1984).

System: MG63 Human osteogenic sarcoma cells
Assay: Colony formation after 7 days with two additions of fatty acid
Format: cell-based
Method: MG63 Human osteogenic sarcoma cells were seeded in culture flasks as described in Examples 4 and 5. 2,000 cells were seeded in each flask. Duplicate sets of flasks were used for each of the fatty acids tested. The following fatty acids dissolved in standard growth medium were added to the cells in culture, after allowing 2 days for cell attachment, and again after a further 3 days. Each culture therefore had only 2 additions of the relevant fatty acid. The cells were stained and examined at the end of 7 days in culture: • 1. Culture medium only - control. • 2. 5, 10, 20, 40, 60, 80 and 100µg oleic acid respectively /ml culture medium. […] 5; 10, 20, 40, 60, 80 and 100µg LA respectively /ml culture medium. • 4. 5, 10, 20, 40, 60, 80 and […] ALA respectively ./ml culture. medium. • 5. 5, 10, 20, 40, 60, 80 and 100µg/ml AA respectively /ml culture medium. • 6. 5, 10, 20, 40, 60, 80 and 100µg/ml EPA respectively /ml culture medium. • ..7.

## CCCCC/C=C\C/C=C\C/C=C\CCCCC(=O)O [GLA, gamma linolenic acid]
Dose series 5 to 100 µg/ml, 2 additions
  suppressive action on proliferation and colony formation: almost equal, progressive, suppressive action
Levels of supplementation above 40 µg/ml culture medium, 2 additions
  cell growth and colony formation: completely suppressed
Supplementation levels between 40 and 100 µg/ml
  cells or colonies found on microscopic examination: Not a single cell or colony of cells could be found
